Data on 61 molecules can be found in US12686689B2, “HPK1 inhibitor, preparation method therefor and use thereof” (WIGEN BIOMEDICINE TECHNOLOGY (SHANGHAI) CO., LTD., priority 2020, dated 2026).

Chain of HPK1 (Q92918 whole entry): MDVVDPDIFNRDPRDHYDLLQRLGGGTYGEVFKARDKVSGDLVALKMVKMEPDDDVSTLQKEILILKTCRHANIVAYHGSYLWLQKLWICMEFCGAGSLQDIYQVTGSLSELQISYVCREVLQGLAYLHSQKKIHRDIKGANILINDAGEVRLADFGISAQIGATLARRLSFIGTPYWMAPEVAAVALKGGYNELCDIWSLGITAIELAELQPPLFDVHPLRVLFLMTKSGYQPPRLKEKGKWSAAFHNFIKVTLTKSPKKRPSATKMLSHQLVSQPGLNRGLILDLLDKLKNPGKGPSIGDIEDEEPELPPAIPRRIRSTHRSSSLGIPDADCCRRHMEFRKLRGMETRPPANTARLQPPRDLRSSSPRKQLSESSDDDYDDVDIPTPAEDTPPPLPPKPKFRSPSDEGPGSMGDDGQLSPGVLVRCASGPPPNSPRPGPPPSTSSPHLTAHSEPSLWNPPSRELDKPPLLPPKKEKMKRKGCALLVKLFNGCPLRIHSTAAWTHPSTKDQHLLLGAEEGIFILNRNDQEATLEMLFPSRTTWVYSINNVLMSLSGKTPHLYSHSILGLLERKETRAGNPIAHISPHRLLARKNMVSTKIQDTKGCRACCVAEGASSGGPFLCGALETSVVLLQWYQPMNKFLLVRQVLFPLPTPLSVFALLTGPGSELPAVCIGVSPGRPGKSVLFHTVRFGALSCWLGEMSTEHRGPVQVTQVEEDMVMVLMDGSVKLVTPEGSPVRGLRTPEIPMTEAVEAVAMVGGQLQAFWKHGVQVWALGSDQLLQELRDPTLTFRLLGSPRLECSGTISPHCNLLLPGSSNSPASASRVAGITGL

The assay concerns the target HPK1 (Homo sapiens, UniProt Q92918). Description: Inhibitory effect against enzyme activity of HPK1 (lantha Screen, PKC substrate). The format is biochemical. The conditions noted are these: class symbols defined as IC50 ranges, read-out: Inhibition rate (%). The procedure:
Example 130: Assay of Inhibitory Effect of Compound Against Enzyme Activity of HPK1
The inhibitory effect of the compound against the enzyme activity of HPK1 was determined by using a lantha Screen method with PKC as a substrate. The process comprises the following specific steps: the HPK1 protein was incubated with the serially-diluted compound at 28° C. for 10 min followed by addition of fluoroescein-labeled PKC substrate and ATP to react for 90 min. After termination of the reaction, a Terbium-labeled antibody against phosphorylated PKC was added and incubated for 60 min. The energy transfer of Teribium and fluoroscein was monitored by detecting luminescence at 520 nm and 450 nm to quantify PKC as the level of phosphorylation of […]. Inhibition % and IC50 of the compound were calculated compared to the control group.
Take `CN1CCN2c3ccc(-c4n[nH]c5cc(C#N)c(-c6cnc7c(c6)ncn7C)cc45)cc3OCC2C1` (stereo not shown) [Compound 52]: the IC50 is ≤ 10 nM.

Turning to `COc1cccc(F)c1-c1ccc2[nH]nc(-c3ccc4c(c3)OCC3CN(C)CCN43)c2n1` (stereo not shown) [Compound 85], the IC50 is 10 to 100 nM.

For `CNCc1cc(F)c(-c2nc3c(-c4ccc5c(c4)OCC4CN(C)CCN54)n[nH]c3cc2C#N)c(F)c1` (stereo not shown) [Compound 84], the IC50 was ≤ 10 nM.

Consider `CN1CCN2c3ccc(-c4n[nH]c5cc(C#N)c(-c6cnc7nccnc7c6)cc45)cc3OCC2C1` (stereo not shown) [Compound 53], for which the IC50 was ≤ 10 nM.

With `CNCc1cc(C)c(-c2cc3c(-c4ccc5c(c4)N(C)CC4CN(C)CCN54)n[nH]c3cc2C#N)c(F)c1` (stereo not shown) [Compound 122], the IC50 was ≤ 10 nM.

For the molecule `COc1cccc(F)c1-c1nc2c(-c3ccc4c(c3)OCC3CN(C)CCN43)n[nH]c2cc1C#N` (stereo not shown) [Compound 82], the IC50 lay in the range of 10 to 100 nM.

As for `CN(C)CCN(C)C(=O)c1ccc(-c2c[nH]c3ncc(-c4ccc5c(c4)OCC4CN(C)CCN54)nc23)cc1` (stereo not shown) [Compound 114], the IC50 is ≤ 10 nM.

On to `CN1CCN2c3ccc(-c4cnc5[nH]nc(-c6ccc(C(=O)N7CC(N(C)C)C7)cc6)c5n4)cc3OCC2C1` (stereo not shown) [Compound 118], for which the IC50 is ≤ 10 nM.

Consider `CN(C)CCN(C)C(=O)c1ccc(-c2n[nH]c3ncc(-c4ccc5c(c4)OCC4CN(C)CCN54)nc23)cc1` (stereo not shown) [Compound 120], for which the IC50 was ≤ 10 nM.

`CNCc1cc(F)c(-c2nc3c(-c4ccc5c(c4)OCC4CN(C)CCN54)c[nH]c3cc2C#N)c(F)c1` (stereo not shown) [Compound 99]: the IC50 was ≤ 10 nM.

Consider `CN1CCN2c3ccc(-c4n[nH]c5cc(C#N)c(-c6c(F)cc(OC(=O)N(C)C)cc6F)cc45)cc3OCC2C1` (stereo not shown) [Compound 34], for which the IC50 was 10 to 100 nM.

On to `CNCc1cc(C)c(-c2cc3c(-c4ccc5c(c4)OCC4CN(CCC#N)CCN54)n[nH]c3cc2C#N)c(F)c1` (stereo not shown) [Compound 129], for which the IC50 was ≤ 10 nM.

`CN1CCN2c3ccc(-c4cnc5[nH]cc(-c6ccc(C(=O)N7CC(N(C)C)C7)cc6)c5c4)cc3OCC2C1` (stereo not shown) [Compound 103]: the IC50 is ≤ 10 nM.

`CN1CCN2c3ccc(-c4n[nH]c5cc(C#N)c(-c6c(F)cc(C(=O)N7CC(O)C7)cc6F)cc45)cc3OCC2C1` (stereo not shown) [Compound 36]: the IC50 is ≤ 10 nM.

In the case of `CN1CCN2c3ccc(-c4n[nH]c5cc(C#N)c(-c6c(F)cc(C7CCCC7N)cc6F)cc45)cc3OCC2C1` (stereo not shown) [Compound 26], the IC50 was ≤ 10 nM.

Regarding `CN1CCN2c3ccc(-c4n[nH]c5cc(C#N)c(-c6c(F)cc(CC#N)cc6F)cc45)cc3OCC2C1` (stereo not shown) [Compound 24], the IC50 was ≤ 10 nM.

As to `CN1CCN2c3ccc(-c4n[nH]c5cc(C#N)c(-c6cccc(NS(C)(=O)=O)c6F)cc45)cc3OCC2C1` (stereo not shown) [Compound 11], the IC50 is 10 to 100 nM.

As for `CN1CCN2c3ccc(-c4n[nH]c5cc(C#N)c(-c6c(F)cc7c(c6F)CC(N)CC7)cc45)cc3OCC2C1` (stereo not shown) [Compound 39], the IC50 is ≤ 10 nM.

As for `CN1CCN2c3ccc(-c4n[nH]c5cc(C#N)c(-c6c(F)cc(NC(=O)CN7CCCC7)cc6F)cc45)cc3OCC2C1` (stereo not shown) [Compound 28], the IC50 was ≤ 10 nM.

For `CNCc1cc(C)c(-c2cc3c(-c4ccc5c(c4)NCC4CN(C)CCN54)n[nH]c3cc2C#N)c(F)c1` (stereo not shown) [Compound 121], the IC50 is ≤ 10 nM.

For `COc1cccc(F)c1-c1ncc2[nH]cc(-c3ccc4c(c3)OCC3CN(C)CCN43)c2n1` (stereo not shown) [Compound 94], the IC50 fell in the range of 10 to 100 nM.

`CN1CC(CN(C)C(=O)c2ccc(-c3c[nH]c4ncc(-c5ccc6c(c5)OCC5CN(C)CCN65)cc34)cc2)C1` (stereo not shown) [Compound 107]: the IC50 is ≤ 10 nM.

Regarding `CN1CCN2c3ccc(-c4n[nH]c5cc(C#N)c(-c6c(F)cc(NC(=O)Cc7cccnc7)cc6F)cc45)cc3OCC2C1` (stereo not shown) [Compound 31], the IC50 is 10 to 100 nM.

For the molecule `CN1CCN2c3ccc(-c4n[nH]c5cc(C#N)c(-c6cccc(C(=O)NCc7ccncc7)c6F)cc45)cc3OCC2C1` (stereo not shown) [Compound 10], the IC50 is ≤ 10 nM.

In the case of `COc1c(F)ccc(F)c1-c1cc2c(-c3ccc4c(c3)OCC3CN(C)CCN43)n[nH]c2cn1` (stereo not shown) [Compound 75], the IC50 was 10 to 100 nM.

On to `COCc1cc(F)c(-c2cc3c(-c4ccc5c(c4)OCC4CN(C)CCN54)n[nH]c3cc2C#N)c(F)c1` (stereo not shown) [Compound 25], for which the IC50 is ≤ 10 nM.

Take `CN1CCN2c3ccc(-c4n[nH]c5cc(C#N)c(-c6cccc(S(C)(=O)=O)c6F)cc45)cc3OCC2C1` (stereo not shown) [Compound 13]: the IC50 is ≥ 100 nM.

`CNCc1cc(F)c(-c2ccc3[nH]cc(-c4ccc5c(c4)OCC4CN(C)CCN54)c3n2)c(F)c1` (stereo not shown) [Compound 102]: the IC50 is ≤ 10 nM.

As to `CN1CCN2c3ccc(-c4n[nH]c5cc(C#N)c(-c6cccc(P(C)(C)=O)c6F)cc45)cc3OCC2C1` (stereo not shown) [Compound 12], the IC50 is ≤ 10 nM.

Consider `CNCc1cc(F)c(-c2cc3c(-c4ccc5c(c4)OCC4CN(C)CCN54)n[nH]c3cn2)c(F)c1` (stereo not shown) [Compound 68], for which the IC50 is ≤ 10 nM.

With `CNCc1cc(C)c(-c2ccc3[nH]cc(-c4ccc5c(c4)OCC4CN(C)CCN54)c3n2)c(F)c1` (stereo not shown) [Compound 101], the IC50 is ≤ 10 nM.

Take `CNCc1cc(C)c(-c2cc3c(-c4ccc5c(c4)OCC4CN(C)CCN54)c[nH]c3cc2C#N)c(F)c1` (stereo not shown) [Compound 92]: the IC50 is ≤ 10 nM.

As for `CNCc1cc(C)c(-c2cc3c(-c4ccc5c(c4)OCC4CN(C)CCN54)n[nH]c3cc2C#N)c(F)c1` (stereo not shown) [Compound 17], the IC50 was ≤ 10 nM.

As for `CN1CCN2c3ccc(-c4n[nH]c5cc(C#N)c(-c6cnc7cnn(C)c7c6)cc45)cc3OCC2C1` (stereo not shown) [Compound 51], the IC50 is ≤ 10 nM.

As for `CN1CCN2c3ccc(-c4n[nH]c5cc(C#N)c(-c6ccccc6F)cc45)cc3OC[C@@H]2C1` [Compound 1-a], the IC50 was ≤ 10 nM.

Regarding `CN1CCN2c3ccc(-c4n[nH]c5cc(C#N)c(-c6ccccc6F)cc45)cc3OC[C@H]2C1` [Compound 1-b], the IC50 is ≤ 10 nM.

`CN1CCN2c3ccc(-c4n[nH]c5cc(C#N)c(-c6ncccc6F)cc45)cc3OCC2C1` (stereo not shown) [Compound 42]: the IC50 was ≤ 10 nM.

For the molecule `Cc1ccccc1-c1cc2c(-c3ccc4c(c3)OCC3CN(C)CCN43)n[nH]c2cc1C#N` (stereo not shown) [Compound 3], the IC50 is 10 to 100 nM.

For the molecule `CN(C)CCN(C)C(=O)c1ccc(-c2c[nH]c3ncc(-c4ccc5c(c4)OCC4CN(C)CCN54)cc23)cc1` (stereo not shown) [Compound 105], the IC50 was ≤ 10 nM.

In the case of `CNCc1cc(C)c(-c2cc3c(-c4ccc5c(c4)OCC4CN(C6COC6)CCN54)n[nH]c3cc2C#N)c(F)c1` (stereo not shown) [Compound 126], the IC50 is ≤ 10 nM.

Regarding `CNCc1cc(F)c(-c2cc3c(-c4ccc5c(c4)OCC4CN(C)CCN54)c[nH]c3cn2)c(F)c1` (stereo not shown) [Compound 90], the IC50 was ≤ 10 nM.

Regarding `CN1CCN2c3ccc(-c4n[nH]c5cc(C#N)c(-c6c(F)ccc7c6CCCC7N)cc45)cc3OCC2C1` (stereo not shown) [Compound 38], the IC50 is ≤ 10 nM.

`CN1CCN2c3ccc(-c4cnc5[nH]nc(-c6ccc(C(=O)N7CC(N(C)C)C7)cc6)c5c4)cc3OCC2C1` (stereo not shown) [Compound 115]: the IC50 is ≤ 10 nM.

With `CNC(=O)c1cncc(-c2cc3c(-c4ccc5c(c4)OCC4CN(C)CCN54)n[nH]c3cc2C#N)c1` (stereo not shown) [Compound 46], the IC50 is ≤ 10 nM.

As for `Cc1n[nH]cc1-c1cc2c(-c3ccc4c(c3)OCC3CN(C)CCN43)n[nH]c2cn1` (stereo not shown) [Compound 72], the IC50 was ≤ 10 nM.

For `CNCc1cc(F)c(-c2cc3c(-c4ccc5c(c4)OCC4CN(C)CCN54)n[nH]c3cc2C#N)c(C(F)(F)F)c1` (stereo not shown) [Compound 19], the IC50 was ≤ 10 nM.

In the case of `CN1CCN2c3ccc(-c4n[nH]c5cc(C#N)c(-c6cnn7cccnc67)cc45)cc3OCC2C1` (stereo not shown) [Compound 63], the IC50 is ≤ 10 nM.

`CNCc1cc(C)c(-c2cc3c(-c4ccc5c(c4)OCC4CN(C6CCN(C)CC6)CCN54)n[nH]c3cc2C#N)c(F)c1` (stereo not shown) [Compound 127]: the IC50 is ≤ 10 nM.

As to `CN1CCN2c3ccc(-c4n[nH]c5cnc(-c6c(F)cccc6F)cc45)cc3OCC2C1` (stereo not shown) [Compound 66], the IC50 was 10 to 100 nM.

Turning to `CN1CCN2c3ccc(-c4n[nH]c5cc(C#N)c(-c6c(F)cc(C7CCCCN7)cc6F)cc45)cc3OCC2C1` (stereo not shown) [Compound 23], the IC50 is ≤ 10 nM.

Take `CN1CCN2c3ccc(-c4cnc5[nH]nc(-c6ccc(C(=O)N7CC(O)C7)cc6)c5c4)cc3OCC2C1` (stereo not shown) [Compound 116]: the IC50 was in the range of 10 to 100 nM.

`CN1CCN2c3ccc(-c4n[nH]c5cc(C#N)c(-c6c(F)cc(OCc7ccncc7)cc6F)cc45)cc3OCC2C1` (stereo not shown) [Compound 32]: the IC50 is ≤ 10 nM.

Turning to `Cc1n[nH]cc1-c1cc2c(-c3ccc4c(c3)OCC3CN(C)CCN43)n[nH]c2cc1C#N` (stereo not shown) [Compound 47], the IC50 is ≤ 10 nM.

`CN1CCN2c3ccc(-c4cnc5[nH]cc(-c6ccc(C(=O)N7CC(O)C7)cc6)c5n4)cc3OCC2C1` (stereo not shown) [Compound 113]: the IC50 was ≤ 10 nM.

Consider `CN1CCN2c3ccc(-c4cnc5[nH]nc(-c6ccc(C(=O)N7CC(O)C7)cc6)c5n4)cc3OCC2C1` (stereo not shown) [Compound 119], for which the IC50 lay within 10 to 100 nM.

Turning to `Cc1cccc(F)c1-c1cc2c(-c3ccc4c(c3)OCC3CN(C)CCN43)n[nH]c2cn1` (stereo not shown) [Compound 65], the IC50 is 10 to 100 nM.

Regarding `CN1CCN2c3ccc(-c4n[nH]c5cc(C#N)c(-c6cncc7ccccc67)cc45)cc3OCC2C1` (stereo not shown) [Compound 54], the IC50 lay in the range of 10 to 100 nM.

Take `CNCc1cc(C)c(-c2ccc3[nH]nc(-c4ccc5c(c4)OCC4CN(C)CCN54)c3n2)c(F)c1` (stereo not shown) [Compound 86]: the IC50 lay in the range of 10 to 100 nM.

Take `CN1CCN2c3ccc(-c4cnc5[nH]cc(-c6ccc(C(=O)C7CNC7)cc6)c5c4)cc3OCC2C1` (stereo not shown) [Compound 108]: the IC50 was in the range of 10 to 100 nM.

Regarding `CNCc1cc(F)c(-c2ncc3[nH]cc(-c4ccc5c(c4)OCC4CN(C)CCN54)c3n2)c(F)c1` (stereo not shown) [Compound 96], the IC50 was in the range of 10 to 100 nM.

For the molecule `CNCc1cc(F)c(-c2cc3c(-c4ccc5c(c4)OCC4CN(C)CCN54)c[nH]c3cc2C#N)c(F)c1` (stereo not shown) [Compound 93], the IC50 is ≤ 10 nM.
